Experimental data taken from US20220057378A1, “MICROBIAL MICROFLUIDIC BIOSENSOR” (priority 2015, published 2022).
Like-named read-outs stand apart in the source and are kept apart here.

Experiments:
As3 = assay: microplate specificity test with on- and off-target heavy metals (fluorescence); assay type: cell-based, E. coli; details: on-target = 1, no-toxin control = 0; As 1.3, Cd 0.44, Cr(VI) 2, Cu 20, Pb 1, Hg 0.1, Co 20, Fe 500, Ni 1.7, Zn 7.6 μM
Description: (§1) Each column represents the fluorescence response of a strain to the on-target metal (normalized to “1”) and all off-target metals, where “0” represents the unchanged response for the no-toxin control.
(§2) Although the ability to sense cobalt, iron, nickel, and zinc is of secondary importance, these heavy metals were included as potential off-target inducers because they may be present in the natural water supply under test. […] This combinatorial logic was implemented in algorithms.

Cd1 = assay: as above; assay type: cell-based, E. coli; details: on-target = 1, no-toxin control = 0; As 1.3, Cd 0.44, Cr(VI) 2, Cu 20, Pb 1, Hg 0.1, Co 20, Fe 500, Ni 1.7, Zn 7.6 μM
Description: as §1, §2

Cr5 = assay: as above; assay type: cell-based, E. coli; details: on-target = 1, no-toxin control = 0; As 1.3, Cd 0.44, Cr(VI) 2, Cu 20, Pb 1, Hg 0.1, Co 20, Fe 500, Ni 1.7, Zn 7.6 μM
Description: as §1, §2

Cu1 = assay: as above; assay type: cell-based, E. coli; details: on-target = 1, no-toxin control = 0; As 1.3, Cd 0.44, Cr(VI) 2, Cu 20, Pb 1, Hg 0.1, Co 20, Fe 500, Ni 1.7, Zn 7.6 μM
Description: as §1, §2

Hg3 = assay: as above; assay type: cell-based, E. coli; details: on-target = 1, no-toxin control = 0, As 1.3, Cd 0.44, Cr(VI) 2, Cu 20, Pb 1, Hg 0.1, Co 20, Fe 500, Ni 1.7, Zn 7.6 μM
Description: as §1, §2

Pb2 = assay: as above; assay type: cell-based, E. coli; details: on-target = 1, no-toxin control = 0; As 1.3, Cd 0.44, Cr(VI) 2, Cu 20, Pb 1, Hg 0.1, Co 20, Fe 500, Ni 1.7, Zn 7.6 μM
Description: as §1, §2

E. coli MG1655 = assay type: cell-based; details: for Number DE Genes: false discovery rate below 1%
Description: RNA-Seq results for promoter activation in E. coli MG1655 in response to single and multiple toxin exposures at low and high concentrations: Our analysis of the sequencing data from RNA-Seq experiments to determine candidate genes that are induced upon toxin exposure consisted of three main tasks: sequence alignment, quantification of gene expression, and identification of differentially expressed genes. Sequence alignment: Reads were aligned to the reference E. coli K-12 substr. MG1655 genome using a tolerance of at most two mismatches per alignment to protect against sequencing errors. The alignment was performed using Bowtie software, 5 which is known to be very efficient in aligning reads to a reference genome. Without being limiting, Bowtie software 5 can be used for the alignment. Those skilled in the art will appreciate that there are many such software programs for performing alignments.
Quantification of gene expression: The expression level of each gene was determined as a function of the number of aligned reads mapping to the gene. […] Additionally, we implemented our own algorithms for sequence alignment and quantification of gene expression in order to crosscheck all results.
Identification of differentially expressed genes: Finally, a set of statistical and information theory algorithms were applied in order to extract not only differentially expressed (DE) genes for each toxin with respect to the control samples (pure water) but also toxin-specific genes. DESeq is a standard tool for identifying DE genes that allowed us to select sensitive genes with differential expression between the control samples (pure water) and the cells exposed to toxin. It assumes that the number of counts for each gene across experimental replicates follows a negative binomial distribution (8, 9). We considered genes with a False Discovery Rate (FDR) lower than 1% as DE in order to ensure statistically robust DE genes. […] Additionally, genes with the largest number of counts and expression levels are preferable in order to maximize the signal-to-noise ratio. When it is not possible to find toxin-specific genes, the next generation of good candidates is formed by those genes satisfying the above properties for a small subset of toxins (multiple-toxin response). It is desirable to have single-toxin-specific genes for several of the toxins in the combination in order to determine toxin-specific multi-gene-responses by means of logical operations. […] Therefore, we have developed information theoretic measures to improve the toxin separability. The core idea of the approach is that low entropies (or highly informative genes) correspond to toxin-specific genes, while large entropies (low information) are associated with scenarios in which DE fold-changes across different toxins are similar and should be discarded.
Milestone 2.1: Expose target cells to toxins of interest over four orders of magnitude of concentration and extract RNA: Three strains of bacteria were exposed to relevant levels of all toxins and extracted RNA. The toxin exposure protocol involves first growing a culture of bacterial cells to mid-log phase (OD≤0.2). […] Finally, cellular RNA was stabilized using Qiagen RNA Protect reagent, the cells were centrifuged, and the pellet was frozen at −80° C. To investigate the cellular RNA response to toxin insult, we exposed E. coli MG1655, E. coli LABEC01, and B. subtilis 168 cells to the toxins and concentrations shown in Table 7 and extracted RNA.
Milestone 2.5: Prepare isolated RNA for Illumina sequencing using vendor provided reagents and carry out sequencing: We have prepared libraries and carried out sequencing for all toxins of interest.

E. coli MG1655 cells = assay: batch growth curves of cells exposed to toxin around the EPA limit; assay type: cell-based; details: batch culture, levels around the EPA limit
Description: In determining the toxin concentrations for exposure, EPA limit was explored. […] The general strategy was to examine the cellular RNA response at toxin levels where the cells are responding specifically to the presence of the toxin without triggering a universal (and unspecific) cellular stress response.

Molecule | fluorescence response of strain As3 (on-target arsenic) (As3) | fluorescence response of strain Cd1 (on-target cadmium) (Cd1) | fluorescence response of strain Cr5 (on-target chromium(VI)) (Cr5) | fluorescence response of strain Cu1 (on-target copper) (Cu1) | fluorescence response of strain Hg3 (on-target mercury) (Hg3) | fluorescence response of strain Pb2 (on-target lead) (Pb2) | response of the arsR promoter (E. coli MG1655; RNA-Seq mean fold change) | Number DE Genes (E. coli MG1655; high concentration) | Number DE Genes (E. coli MG1655; low concentration) | response of the zntA promoter (E. coli MG1655; RNA-Seq mean fold change) | fluorescence response of strain Hg3 (on-target mercury) (Hg3; listed as chromium(VI)) | response of the recN promoter (E. coli MG1655; RNA-Seq mean fold change) | response of the sulA promoter (E. coli MG1655; RNA-Seq mean fold change) | response of the umuD promoter (E. coli MG1655; RNA-Seq mean fold change) | growth phase lag of cells exposed to toxin (E. coli MG1655 cells) | response of the cusC promoter (E. coli MG1655; RNA-Seq mean fold change) | response of the cusR promoter (E. coli MG1655; RNA-Seq mean fold change) | response of the mntH promoter (E. coli MG1655; RNA-Seq mean fold change) | response of the shiA promoter (E. coli MG1655; RNA-Seq mean fold change) | response of the ybiI promoter (E. coli MG1655; RNA-Seq mean fold change)
[As] [Arsenic] | 1.00 | −0.18 | 0.24 | −0.05 | 0.25 | 0.33 | responds specifically and monotonically to increasing concentrations | 14 | 3 |  |  |  |  |  |  |  |  |  |  | 
[Cd] [Cadmium] | −0.13 | 1.00 | −0.02 | −0.08 | −0.26 | 0.46 |  | 38 | 132 | responds monotonically to increasing concentrations |  |  |  |  |  |  |  |  |  | 
[Cr+6] [Chromium(VI)] | −0.22 | 0.62 | 1.00 | −0.06 | −0.96 | 1.69 |  | 377 | 270 |  | sensitive | only shows sensitivity to high concentrations | only shows sensitivity to high concentrations | only shows sensitivity to high concentrations | exhibited this growth phase lag |  |  |  |  | 
[Cu] [Copper] |  | −0.09 | −0.08 | 1.00 | 0.16 | −0.17 |  | 77 | 110 |  |  |  |  |  | delay the onset of the exponential growth phase | responds monotonically to increasing concentrations | only shows sensitivity to high concentrations |  |  | 
[Pb] [Lead] | −0.05 | 0.06 | 0.01 | −0.05 | 0.12 | 1.00 |  | 489 | 99 |  |  |  |  |  |  |  |  | responds to high concentrations | responds to high concentrations | responds specifically and monotonically to increasing concentrations
Mercury | −0.18 | −0.09 | 0.58 | −0.05 | 1.00 | 1.44 |  | 218 | 165 |  |  |  |  |  | did not exhibit this growth phase lag |  |  |  |  | 
